One data set relates to SH-SY5Y cells. In words: Cell proliferation (anti-proliferation) assay, MTS. The class given is cell-based, human. Particulars: for GI50 / IC50: Homo sapiens; for GI50: SH-SY5Y neuroblastoma cell line, 72 h, mean ± SD (n = 4); for IC50: read-out: anti-proliferative activity IC50 against SH-SY5Y cell line. As for the experimental part: SH-SY5Y cells were grown in DMEM with L-glutamin supplemented with streptomycin ([…]), penicillin (100 units/mL), and 10% fetal bovine serum (FBS). Cells were grown to confluence in a humidified atmosphere (37 °C, 5% CO2).
SH-SY5Y cells (1.5 × 10^3 cells/well) were seeded in a clear 96-well plate, the medium volume was brought to 100 µL, and the cells were allowed to attach overnight. The next day, various concentrations of compounds or DMSO were added to the wells. Cells were then incubated at 37 °C for 24, 48 and 72 h. Cell viability was determined using the Promega Cell Titer 96 Aqueous One Solution cell proliferation assay. Absorbance at 490 nm was read on Tecan Infinite F200 Pro plate reader, and values were expressed as percent of absorbance from cells incubated in DMSO alone.

A short description of another data set: PAMPA-BBB assay. The format is in vitro ADME. Particulars: for Papp at 4 h, 25 μM: PAMPA, read-out: Pe. As for the experimental part:
BBB-PAMPA was conducted by manufacturer’s instruction (pION Inc, MA, USA). […] Transmembrane side to donor part was coated with BBB lipid solution and add 200 μL acceptor buffer in upper part of PAMPA sandwich plate.
(In PAMPA a lipid-coated filter parts donor from acceptor wells.)

Data set [1] can be described thus: In vivo brain pharmacokinetic study. Conditions: ICR male mice, IV, 2 mg/kg. The procedure: The study was approved by the Institutional Animal Care and Use of Committee of Daegu-Gyeongbuk Medical Innovation Foundation (DGMIF) and performed in accordance with protocols approved by the Institutional Animal Care and Use of Committee. […] Brain and plasma samples were collected at 0.5 and 1 h time points. Brain samples were homogenized at a 1:4 ratio of sample weight (g) to PBS volume (mL). Aliquots (20 μL) of brain homogenate were mixed with 180 μL of acetonitrile, vortexed and centrifuged at 15,000 rpm for 5 minutes at 4 °C. The resulting supernatants were used for LC-MS/MS analysis. Mice plasma samples were collected at 0.5 and 1 h time points. 180 μL of acetonitrile was added to 20 μL of plasma samples, vortexed and centrifuged at 15,000 rpm for 5 minutes at 4 °C.

A further data set concerns Ac-α-tubulin. Briefly: Western blot of acetylation status in SH-SY5Y cells. The format is cell-based, human. Conditions: 24 h, 1 μM. The procedure: Cells were seeded in 100 mm culture dishes (1 × 10^6 cells/dish), and allowed to attach overnight. Inhibitors were added at the concentrations as indicated and the cells were incubated for an additional 24 hours. For comparison, cells were also incubated with DMSO (0.5%) for 24 hours. Cells were harvested in ice-cold lysis buffer (23 mM Tris-HCl pH 7.6, 130 mM NaCl, 1% NP-40, 1% sodium deoxycholate, 0.1% SDS), and 30 µg of lysate per lane was separated by SDS-PAGE and followed by transferring to a PVDF membrane (Bio-Rad). The membrane was blocked with 5% skim milk in TBST, and then incubated with the corresponding antibody (Ac-α-tubulin, α-tubulin, Ac-Histone H3, Histone H3 or β-actin). After binding of an appropriate secondary antibody coupled to horseradish peroxidase, proteins were visualized by ECL chemiluminescence according to the instructions of the manufacturer (GE healthcare, USA).

The mark [2] stands for this setting: 25 μM, pH 7.4, 4 h, 25 °C, mean ± SD, three independent experiments.

Read-outs that look alike come from different tables or passages of the source.

Here are results for 15 molecules from article PMC6742641, “Design, synthesis and biological evaluation of a series of CNS penetrant HDAC inhibitors structurally derived from amyloid-β probes” (Scientific Reports, 2019).

`Cn1c(-c2ccc(C(=O)NO)cc2)nc2ccccc21` [Compound 6a] displayed a GI50 in the data set with SH-SY5Y cells of 58.3 ± 10.8 µM.
For the molecule `CCCn1c(-c2cccc(C(=O)NO)c2)nc2ccccc21` [Compound 14c], growth in the data set with SH-SY5Y cells was halved (GI50) at 34.6 ± 0.6 µM.
For the molecule `CCn1c(-c2cccc(C(=O)NO)c2)nc2ccccc21` [Compound 14b], in the data set on SH-SY5Y cells, the GI50 came out at 28.2 ± 0.75 µM.
`O=C(NO)c1cccc(-c2nc3ccccc3o2)c1` [Compound 17a] gave a GI50 in the data set on SH-SY5Y cells of 17.5 ± 0.35 µM.
In the data set on SH-SY5Y cells, `CCCCn1c(-c2cccc(C(=O)NO)c2)nc2ccccc21` [Compound 14d] returned a GI50 of 20.7 ± 1 µM.
As for `CC(=O)[C@H]1CC[C@H]2[C@@H]3CCC4=CC(=O)CC[C@]4(C)[C@H]3CC[C@]12C` [Progesterone], the “CNS +/− classification” value in “PAMPA-BBB assay” (PAMPA-BBB) is reported as “CNS + (CNS + indicates (Pe > 10))”. Besides, the Papp at 4 h, 25 μM in the data set “PAMPA-BBB assay” (setting [2]) amounted to 35.52 ± 0.33 ×10⁻⁶ cm/s.
Molecule `Cn1c(-c2cccc(C(=O)NO)c2)nc2ccccc21` [Compound 14a] had a concentration for 50% growth inhibition (GI50) in the data set with SH-SY5Y cells above 100 µM.
Molecule `O=C(NO)c1cccc(-c2nc3ccccc3s2)c1` [Compound 17b] gave a GI50 in the data set on SH-SY5Y cells of 21.4 ± 1.65 µM.
Regarding `CCCn1c(-c2ccc(C(=O)NO)cc2)nc2ccccc21` [Compound 6c], halving of growth in the data set on SH-SY5Y cells (GI50) required 54.7 ± 0.95 µM.
`O=C(CCCCCCC(=O)Nc1ccccc1)NO` [SAHA, suberoylanilide hydroxamic acid, reference compound]: the “Brain concentration (ng/mL) 0.5 h” value in data set [1] (0.5 h, n = 4) is recorded as 14.5 ± 2.8 ng/mL. Besides, the “Brain concentration (ng/mL) 1 h” value in data set [1] (1 h, n = 4) was “BQL”. In data set [1] (mouse, brain/plasma, 0.5 h, read-out: Brain/plasma ratio 0.5 h), the Kp at 0.5 h was 0.4. The concentration at 0.5 h in data set [1] (mouse, brain, 0.5 h, n = 4, read-out: Brain concentration (ng/mL) 0.5 h) stood at 14.5 ng/mL. Further, the concentration at 0.5 h in data set [1] (mouse, plasma, 0.5 h, n = 4, read-out: Plasma concentration (ng/mL) 0.5 h) was 39.2 ± 11.5 ng/mL. Also, the concentration at 1 h in data set [1] (mouse, plasma, 1 h, n = 4, read-out: Plasma concentration (ng/mL) 1 h) turned out to be 4.5 ± 2.7 ng/mL. In addition, the half-inhibitory concentration (IC50) with SH-SY5Y cells (SH-SY5Y) turned out to be 2.9 µM. The molecule further yielded a GI50 in the data set on SH-SY5Y cells of 2.9 ± 0.28 µM. Also, in the data set “PAMPA-BBB assay” (setting [2]), the “Pe (10^−6 cm/s)” value is on record as 2.77 10^−6 cm/s and the Papp at 4 h, 25 μM came out at 2.77 ± 0.05 ×10⁻⁶ cm/s. In the data set with Ac-α-tubulin, the “acetylation of α-tubulin at 1 μM, SAHA versus 9b” value is given as “induced more acetylation of α-tubulin than compound 9b”.
In the data set on SH-SY5Y cells, `O=C(NO)c1ccc(-c2nc3ccccc3[nH]2)cc1` [Compound 5] came in with a GI50 of 60 ± 1.5 µM. The half-maximal inhibitory concentration (IC50) in the data set on SH-SY5Y cells (SH-SY5Y, Table 1 values IC50) stood at 60 µM.
Take `O=C(NO)c1cccc(-c2nc3ccccc3[nH]2)c1` [Compound 13]: the 50% growth inhibitory concentration (GI50) in the data set with SH-SY5Y cells was above 100 µM.
As for `CCn1c(-c2ccc(C(=O)NO)cc2)nc2ccccc21` [Compound 6b], in the data set on SH-SY5Y cells, it took 38.1 ± 0.2 µM to inhibit growth by half (GI50).
Consider `CCCCn1c(-c2ccc(C(=O)NO)cc2)nc2ccccc21` [Compound 6d], for which the GI50 in the data set with SH-SY5Y cells is 26.8 ± 1.35 µM. The IC50 in the data set on SH-SY5Y cells (SH-SY5Y, Table 1 values IC50) stood at 26.8 µM. For the same molecule, the “fold increase in potency from non-substituted analogue 5” value with SH-SY5Y cells (SH-SY5Y) is reported as around 2 fold.
Molecule `O=C(NO)c1ccc(-c2nc3ccccc3o2)cc1` [Compound 9a] displayed a GI50 with SH-SY5Y cells of 25.7 ± 0.05 µM. In addition, in the data set on SH-SY5Y cells (SH-SY5Y, Table 1 values IC50), the IC50 is 25.7 µM. For the same molecule, the “fold less potent anti-proliferative activity than compound 9b” value in the data set on SH-SY5Y cells (SH-SY5Y) is listed as 12 fold.

The GI50 is the concentration at which growth is held to half of that of the control. As usually defined, the IC50 is the concentration that inhibits the measured activity by half.
